Results taken from patent US12226405B2, “Compounds and compositions for inhibiting the activity of HIF2-alpha and their methods of use” (Novartis AG, priority 2020, dated 2025).

What was measured:
[1] = biological target: HIF2α PAS-B domain (236-350, biotinylated on the N-terminus) (Homo sapiens (Human), UniProt Q99814)
Procedure: The assay buffer contained 50 mM Tris-HCl pH7 (Sigma), 20 mM NaCl (Fluka), 0.02% BSA (Sigma), 0.005% Triton X-100 (Pierce) and 1 mM DTT (Fluka). After a 30 min incubation period, 5 μL Streptavidin PVT SPA Beads (Perkin Elmer) at 1.2 mg/mL, diluted in the buffer, were added.

[2] = tested on: HIF2α-dependent transcription in 786-O-HRE-Luc cells; test: In vitro cellular hypoxia response element (HRE) reporter gene assay (RGA) for HIF2α; format: cell-based, human; conditions: Homo sapiens, 24 hours incubation
Procedure: (§1) Stock solutions of compounds were prepared at a concentration of 10 mM in DMSO and stored at 4° C. Where necessary to afford a full dose-response curve, the stock solutions were pre-diluted in DMSO to 1,000-fold the desired reduced start concentration. On the day after cell seeding, eleven 2-fold serial dilutions of each compound were dispensed directly into the cell assay plates using either HP 300D non-contact Digital Dispenser (TECAN) or a ATS100 acoustic dispenser (EDC Biosystems).
The ability of compounds to inhibit HIF2α- and HIF1α-dependent transcription was assessed in 786-O-HRE-Luc and RCC4-HRE-Luc cells, respectively. The putative unselective inhibition of firefly luciferase activity or expression was assessed in 786-O-UB6-Luc and RCC4-UB6-Luc cells, respectively. The reporter lines were generated as follows: 786-O (RRID: CVCL_1051) and RCC4 (RRID: CVCL_0498) clear cell renal carcinoma cell lines were obtained from ATCC and Celeste Simon (University of Pennsylvania), respectively. Either cell line was transduced with a lentiviral vector in which the expression of a PEST-destabilized version of firefly-luciferase is under the control of either a minimal promoter coupled to four copies of a minimal hypoxia response element (HRE) sequence (pLenti 4×HRE Luc PEST), or a promoter from the house-keeping UBC gene (pLenti UB6 Luc PEST). In short, for the construction of the pLenti 4×HRE Luc PEST vector, 4×HRE DNA oligonucleotides were synthesized, annealed and cloned into pGL4.27 plasmid vector (Promega) predigested with NheI and HindIII restriction enzymes. The sequence of the two DNA oligonucleotides was as follows: NheI 4×HRE HindIII FWD: […] (SEQ ID NO: 8); NheI 4×HRE HindIII REV […] (SEQ ID NO: 9). The 4×HRE Luc PEST fragment was then PCRed from this plasmid with restriction enzyme sites NheI and XhoI at the two ends, and inserted into pLenti6/BLOCK iT DEST (Thermo Fisher Scientific) predigested with NheI and XhoI restriction enzymes. For the construction of the pLenti UB6 Luc PEST vector, the Luc PEST sequence was PCRed from pGL4.27 (Promega) using EcoRV and XhoI restriction enzymes at the two ends, and inserted into pLenti6/UBC/V5/DEST (Thermo Fisher Scientific) predigested with the same enzymes. 786-O and RCC4 cells (300,000 per well of a 6 well plate) were infected in the presence of 10 μg/ml polybrene with lentivirus harvested two days after transfection of HEK293-FT (ThermoFisher Scientific #R70007) cells (80% confluent in a 100 cm^2 dish) with a mix of 1.5 ml OptiMEM (ThermoFisher Scientific #31985062) containing 3 μg of the desired plasmids and 9 μl of ViralPower Packaging mix (ThermoFisher Scientific #K497500), and 1.5 ml OptiMEM containing 36 μl Lipofectamine 2000 (ThermoFisher Scientific #11668019). Successfully infected cells were selected using blasticidin (Gibco #A11139-03) at a final concentration of 5 μg/ml. The resulting stable cell lines were named 786-O pLenti 4×HRE Luc PEST (short: 786-O-HRE-Luc), 786-O pLenti UB6 Luc PEST (short: 786-O-UB6-Luc), RCC4 pLenti 4×HRE Luc PEST (short: RCC4-HRE-Luc) and RCC4 pLenti UB6 Luc PEST (short: RCC4-UB6-Luc). All 4 cell lines were maintained in growth medium composed of DMEM (GIBCO #11995-065), 2 mM L-Glutamine (BioConcept #5-10K50-H), 10% fetal calf serum (Gibco #A31608-01), 1× Penicillin/Streptomycin (BioConcept #4-01F00-H), 1 mM Sodium pyruvate (BioConcept #5-60F00-H) and 5 μg/ml blasticidin (Gibco #A11139-03) at 37° C. in a humidified 5% CO2 incubator.
For the reporter gene assay, the individual cell lines were seeded at 2,500 cells/20 μL/well into white-wall, clear-bottom 384-well plates (Greiner #781098) and incubated over night at 37° C. prior to addition of serial compound dilutions as described above. […]

[3] = tested on: HIF2α-regulated expression of the endogenous target gene hEGLN3 in 786-O cells; test: Cellular iScript assay for HIF2α (quantitative RT-PCR of hEGLN3); format: cell-based, human; conditions: Homo sapiens, 786-0, 48 hours incubation
Procedure: as §1
Compound-mediated modulation of the HIF2α-regulated expression of the endogenous target gene hEGLN3 (OMIM: 606426), as well as beta-actin (OMIM: 102630) as a house-keeping control, was assess in 786-O cells (RRID CVCL_1051) using a quantitative RT-PCR approach. In short, 786-O cells were maintained in growth medium composed of DMEM (GIBCO #11995-065), 2 mM L-Glutamine (BioConcept #5-10K50-H), 1× Penicillin/Streptomycin (BioConcept #4-01F00-H), 10% fetal calf serum (Gibco #A31608-01), 1 mM Sodium pyruvate (BioConcept #5-60F00-H). Cells were seeded at 1,000 cells/20 μL/well into white-wall, clear-bottom 384-well plates (Greiner #781098) and incubated over night at 37° C. prior to addition of serial compound dilutions as described above. Following incubation for 48 hours at 37° C., medium supernatant was discarded and the plate blotted dry by inverting on a tissue. The same procedure was repeated following one wash with 20 μL phosphate-buffered saline. Following addition of 25 μL/well iScript sample preparation reagent (BioRad #170-8899) using a 16-channel Matrix pipette, the plate was incubated for 2 min at room temperature. 20 μL lysate supernatant was then removed and transferred to a new 384 well plate (Costar #3656) and diluted 1:3 by adding 5 μL of the lysate to 10 μL H2O using a Bravo liquid handler (Agilent). 2 μL of the diluted lysate was added to the 8 μL of a mastermix containing 5 μL iTaq Universal Probes One-step kit (BioRad #172-5141), 0.25 μL iScript reverse transcription supermix (BioRad #1708840), 0.25 μL 40×HEX-ZEN-labeled TaqMan probe for beta-actin (IDT #Hs.PT.39a.22214847: Probe 5′ HEX-TCA TCC ATG/ZEN/GTG AGC TGG CGG-3′ (SEQ ID NO: 2) Iowa Black FQ, Primer 1: ACA GAG CCT CGC CTT TG (SEQ ID NO: 3); Primer 2: CCT TGC ACA TGC CGG (SEQ ID NO: 4) AG), 0.25 μL, 40×FAM-ZEN-labeled TaqMan probe for hEGLN3 (IDT #Hs.PT.58.189348: Probe 5′ 6-FAM-TTT GGC TTC/ZEN/TGC CCT TTC TTC AGC-3′ (SEQ ID NO: 5) Iowa Black FQ, Primer 1: CACGGTCAGTCTTCAGTGAG (SEQ ID NO: 6); Primer 2: CGCAACCAGATATGCTATGACT (SEQ ID NO: 7)), 2.25 μL RNase-free water, prelaid in a 384 well plate (ABI #4309849) using a 16-channel Matrix pipette. The plate was sealed with a PCR-compatible optical film (MicroAmp, ABI #4360954) and centrifuged (1500 rpm, 5 min, +4° C.) to collect all reagents in the bottom of the well and to remove bubbles. The plate content was amplified on a 7900HT thermal cycler (ABI) using the following conditions: Step 1: 50° C. for 10 min, Step 2: 95° C. for 3 min, Step 3 (40×): 95° C. for 15 s, 60° C. for 1 min. ROX (reaction volume 10 μL) was used as a passive reference. Data were collected with manual adjustment of the Ct threshold (beta-actin: 0.046, hEGLN3: 0.06) and were analyzed using the 2^(−ΔΔCt) method. Thus, for each sample, the following values were calculated: 2^(−Ct)a for beta-actin, 2^(−Ct)e for EGLN3, and 2^(−ΔCt) calculated as (2^(−Ct)e/2^(−Ct)a). The mean 2^(−ΔCt) as well as the corresponding standard deviation was calculated for each sample. Taking the DMSO-treated sample as a reference, the 2^(−ΔΔCt) for each sample was calculated as follows: 2^(−ΔΔCt)=2^(−ΔCt)sample/(2^(−ΔCt)DMSO). After calculating differential expression as 2^(−ΔΔCt) for each sample, it was then expressed as a percentage (×100) to obtain a dose-response curve in % of DMSO control and IC50s were calculated using a four-parametric fit model.

Sequence of HIF2α PAS-B domain (236-350, biotinylated on the N-terminus) (Q99814 236-350): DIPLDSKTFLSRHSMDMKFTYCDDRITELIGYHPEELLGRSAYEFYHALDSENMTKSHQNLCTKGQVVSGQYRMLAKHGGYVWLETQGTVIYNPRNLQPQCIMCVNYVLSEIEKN

SMILES | IC50 [1] | IC50 [2] | IC50 [3]
FC(F)OC1=CC(C(F)(F)F)=CN2C[C@@]3(CCc4cc(C(F)(F)F)ncc43)N=C12 [Example 3, (S)-8′-(difluoromethoxy)-3,6′-bis(trifluoromethyl)-5,6-dihydro-3′H-spiro[cyclopenta[c]pyridine-7,2′-imidazo[1,2-a]pyridine]] | 12 nM | > 10000 nM | 187 nM
N#CC1=CN2C[C@@]3(CCc4c3ccc(Br)c4F)N=C2C(OC(F)F)=C1 [Example 4, (S)-5′-bromo-8-(difluoromethoxy)-4′-fluoro-2′,3′-dihydro-3H-spiro[imidazo[1,2-a]pyridine-2,1′-indene]-6-carbonitrile] | 9 nM | 699 nM | 155 nM
FCOC1=CC(C(F)(F)F)=CN2C[C@@]3(CCc4c3ccc(Br)c4F)N=C12 [Example 5, (5)-5′-bromo-4′-fluoro-8-(fluoromethoxy)-6-(trifluoromethyl)-2′,3′-dihydro-3H-spiro[imidazo[1,2-a]pyridine-2,1′-indene]] | 9 nM | 328 nM | 138 nM
Fc1c(Br)ccc2c1CCC[C@@]21CN2C=C(C(F)(F)F)C=C(OC(F)F)C2=N1 [Example 7, (S)-6′-bromo-8-(difluoromethoxy)-5′-fluoro-6-(trifluoromethyl)-3′,4′-dihydro-2′H,3H-spiro[imidazo[1,2-a]pyridine-2,1′-naphthalene]] | ≤ 3 nM | 82 nM | 32 nM
O=C1CC[C@@]2(CN3C=C(C(F)(F)F)C=C(OC(F)F)C3=N2)c2ccc(Br)c(F)c21 [Example 8, (S)-6′-bromo-8-(difluoromethoxy)-5′-fluoro-6-(trifluoromethyl)-2′H,3H-spiro[imidazo[1,2-a]pyridine-2,1′-naphthalen]-4′(3′H)-one] | 14 nM | 271 nM | 198 nM
O=C1c2c(ccc(Br)c2F)[C@@]2(C[C@H]1F)CN1C=C(C(F)(F)F)C=C(OC(F)F)C1=N2 [Example 9, (1′S)-6′-bromo-8-(difluoromethoxy)-3′,5′-difluoro-6-(trifluoromethyl)-2′H,3H-spiro[imidazo[1,2-a]pyridine-2,1′-naphthalen]-4′(3H′)-one] | 15 nM | 2210 nM | 173 nM
O[C@H]1c2c(ccc(Br)c2F)[C@@]2(C[C@H]1F)CN1C=C(C(F)(F)F)C=C(OC(F)F)C1=N2 [Example 10, (1′S,3′R,4'S)-6′-bromo-8-(difluoromethoxy)-3′,5′-difluoro-6-(trifluoromethyl)-3′,4′-dihydro-2′H,3H-spiro[imidazo[1,2-a]pyridine-2,1′-naphthalen]-4′-ol] | 21 nM | 207 nM | 77 nM
FC(F)OC1=CC(C(F)(F)F)=CN2C[C@@]3(CCCc4cc(Br)ccc43)N=C12 [Example 11, (S)-6′-bromo-8-(difluoromethoxy)-6-(trifluoromethyl)-3′,4′-dihydro-2′H,3H-spiro[imidazo[1,2-a]pyridine-2,1′-naphthalene]] | ≤ 3 nM | 89 nM | 33 nM
FC(F)OC1=CC(C(F)(F)F)=CN2C[C@@]3(CCCc4ccccc43)N=C12 [Example 12, (S)-8-(difluoromethoxy)-6-(trifluoromethyl)-3′,4′-dihydro-2′H,3H-spiro[imidazo[1,2-a]pyridine-2,1′-naphthalene]] | 8 nM | 250 nM | 59 nM
N#CC1=CN2C[C@@]3(CCCc4c3ccc(Br)c4F)N=C2C(OC(F)F)=C1 [Example 13, (S)-6′-bromo-8-(difluoromethoxy)-5′-fluoro-3′,4′-dihydro-2′H,3H-spiro[imidazo[1,2-a]pyridine-2,1′-naphthalene]-6-carbonitrile] | 5 nM | 113 nM | 42 nM
Fc1c(Br)ccc2c1C(F)(F)CC[C@@]21CN2C=C(C(F)(F)F)C=C(OC(F)F)C2=N1 [Example 14, (S)-6′-bromo-8-(difluoromethoxy)-4′,4′,5′-trifluoro-6-(trifluoromethyl)-3′,4′-dihydro-2′H,3H-spiro[imidazo[1,2-a]pyridine-2,1′-naphthalene]] | 9 nM | 146 nM | 57 nM
